Test results reported in US7785566B2, “Pharmaceutical compounds” (GE Healthcare, Inc., priority 2003, dated 2010).

Tested on: ventricular extrasystoles after LAD artery occlusion
Experiment: Antiarrythmic effect in a post myocardial infarction (MI) pig model (LAD ligation)
Type: in vivo
Source text: The pharmaceutical cPn216-[…]OH (X) was examined according to the following procedure:
A pig was anaestetised and put on artificial overpressure ventilation. Access to the heart was obtained by a midline sternotomy and removal of the anterior pericardium. The LAD artery was occluded by ligation above the 2nd branch and one of the collaterals was occluded as well. This caused development of frequent ventricular extrasystoles, known to proceed into ventricular tachycardia and fibrillation within minutes from previous experiments with the same type of preparation. […] An initial rise in mean blood pressure was noticed. Ventricular extrasystoles reappeared gradually after about 15 minutes and a new injection of 0.5 mg of the compound of formula (X) was given. […] The pig was then given a lethal dose of potassium chloride to terminate the experiment.
A similar set of observations was made in a second pig experiment.

[1] = pig, hour following second 0.5 mg injection

## CCC(C)[C@H](NC(=O)[C@@H]1CCCN1C(=O)[C@H](Cc1cnc[nH]1)NC(=O)[C@@H](NC(=O)[C@H](Cc1ccc(O)cc1)NC(=O)[C@@H](NC(=O)[C@H](CCCNC(=N)N)NC(=O)CNCCC(CCNC(C)(C)/C(C)=N\O)CCNC(C)(C)/C(C)=N\O)C(C)C)C(C)CC)C(=O)O (some centres unmarked) [(X)]
pig, ECG recordings before and after the first injection
  Duration of QRS complexes (ECG before and after first injection): shortening
pig, LAD occluded, frequent ventricular extrasystoles, i.v. 0,5 mg, within few minutes
  Heart rhythm after first intravenous injection: Complete stabilisation of the condition with return to sinus rhythm
pig, after first i.v. injection of 0,5 mg
  Time until ventricular extrasystoles reappeared: about 15 minutes
[1]
  Blood pressure during the following hour: slightly reduced but adequate constant
  Heart rhythm during the following hour: stable sinus rhythm
pig, i.v. 0,5 mg, first injection
  Mean blood pressure after first injection: initial rise
pig, new injection of 0.5 mg after reappearance of extrasystoles
  Heart rhythm after second injection: stabilised with regular sinus rhythm
post-MI pig preparation
  Overall anti-arrythmic activity in this preparation: act as an anti-arrythmic drug
